Assays:
ATX (human His-tagged) = ATX (human His-tagged) (Homo sapiens (Human), UniProt Q13822); assay: Human ATX enzyme inhibition assay (fluorescence quenching, MR121 substrate); type: biochemical; conditions: 30 nM ATX, 1 μM MR121 substrate, 30° C.
[1] = target: Human carbonic anhydrase II (hCA-II) (Homo sapiens (Human), UniProt P00918); assay: Human carbonic anhydrase-II inhibition assay (absorbance, 4-nitrophenyl acetate substrate); type: biochemical; conditions: 8 nM hCA II, 2.5 mM 4-NPA, absorbance 340 nm, 1 hour room temperature; read-out: CA-II IC50

## Cc1nnn(Cc2cc(Cl)cnc2COC(=O)N2CCC(S(=O)(=O)c3ccc(S(N)(=O)=O)cc3F)CC2)n1 [Example 1.03, [5-chloro-3-[(5-methyltetrazol-2-yl)methyl]pyridin-2-yl]methyl 4-(2-fluoro-4-sulfamoylphenyl)sulfonylpiperidine-1-carboxylate]
ATX (human His-tagged)
  IC50: 73 nM

## Cc1nnn(Cc2cc(C(F)(F)F)ccc2CCC(=O)N2CCC(CC[S+]([O-])c3ncc(S(N)(=O)=O)s3)CC2)n1 (stereo not shown) [Example 6.06, 2-[2-[1-[3-[2-[(5-methyltetrazol-2-yl)methyl]-4-(trifluoromethyl)phenyl]propanoyl]piperidin-4-yl]ethylsulfinyl]-1,3-thiazole-5-sulfonamide]
ATX (human His-tagged)
  IC50: 4 nM
[1]
  IC50: 14 nM

## NS(=O)(=O)c1ccc(CN2CCN(C(=O)c3cc(OCC4CCOCC4)nc(C4CC4)c3)CC2)c(F)c1 [Example 2.02, 4-[[4-[2-cyclopropyl-6-(oxan-4-ylmethoxy)pyridine-4-carbonyl]piperazin-1-yl]methyl]-3-fluorobenzenesulfonamide]
ATX (human His-tagged)
  IC50: 7 nM
[1]
  IC50: 15.5 nM

## Cc1nnn(Cc2cc(C(F)(F)F)ccc2CCC(=O)N2CCN(Cc3ccc(S(N)(=O)=O)cc3)CC2)n1 [Example 9.00, 4-[[4-[3-[2-[(5-Methyltetrazol-2-yl)methyl]-4-(trifluoromethyl)phenyl]propanoyl]piperazin-1-yl]methyl]benzenesulfonamide]
ATX (human His-tagged)
  IC50: 27 nM

## Cc1nnn(Cc2cc(OC(F)F)ccc2CCC(=O)N2CCC(CC[S+]([O-])c3ccc(S(N)(=O)=O)c(F)c3F)CC2)n1 (stereo not shown) [Example 6.42, 4-[2-[1-[3-[4-(difluoromethoxy)-2-[(5-methyltetrazol-2-yl)methyl]phenyl]propanoyl]piperidin-4-yl]ethylsulfinyl]-2,3-difluorobenzenesulfonamide]
ATX (human His-tagged)
  IC50: 3 nM

## Cc1nnn(Cc2cc(OC(F)F)ccc2CCC(=O)N2CCC(CC[S+]([O-])c3ncc(S(N)(=O)=O)s3)CC2)n1 (stereo not shown) [Example 6.44, 2-[2-[1-[3-[4-(difluoromethoxy)-2-[(5-methyltetrazol-2-yl)methyl]phenyl]propanoyl]piperidin-4-yl]ethylsulfinyl]-1,3-thiazole-5-sulfonamide]
ATX (human His-tagged)
  IC50: 7 nM

## Cc1nnn(Cc2cc(C(F)(F)F)ccc2COC(=O)N2CCC(S(=O)(=O)c3ccc(S(N)(=O)=O)cc3F)CC2)n1 [Example 1.04, [2-[(5-methyltetrazol-2-yl)methyl]-4-(trifluoromethyl)phenyl]methyl 4-(2-fluoro-4-sulfamoylphenyl)sulfonylpiperidine-1-carboxylate]
ATX (human His-tagged)
  IC50: 8 nM

## Cc1nnn(Cc2cc(C(F)(F)F)ccc2CCC(=O)N2CCC(CC[S+]([O-])c3ccc(S(N)(=O)=O)c(F)c3F)CC2)n1 (stereo not shown) [Example 6.43, 2,3-difluoro-4-[2-[1-[3-[2-[(5-methyltetrazol-2-yl)methyl]-4-(trifluoromethyl)phenyl]propanoyl]piperidin-4-yl]ethylsulfinyl]benzenesulfonamide]
ATX (human His-tagged)
  IC50: 6 nM

Reference: US11059794B2, “Heterocyclic compounds useful as dual ATX/CA inhibitors” (Hoffmann-La Roche Inc., priority 2017, dated 2021)
